Experimental data taken from PMC11898701, “Evaluating Therapeutic Efficacy of the Vascular Disrupting Agent OXi8007 Against Kidney Cancer in Mice” (Cancers, 2025).

Assays:
Renca cells [1] = experiment: Microtubule disruption and cell morphology in Renca cells; type: cell-based, mouse; settings: 2.5 and 5 µM
Description: Renca cells were plated in cell culture-treated 96-well plates (Grenier Bio-One North America Inc., Monroe, NC, USA) at 2000 cells/well and allowed to adhere for 24 h before treatment. Hoechst 33342 (1 μg/mL) in complete RPMI 1640 medium was used to stain the cell nuclei for 15 min at 37 °C. […] The medium was removed to reduce background fluorescence, followed by two wash cycles with fresh medium. Fresh medium containing 25 μM of verapamil hydrochloride was added to the stained cells prior to imaging. Images of the microtubule cytoskeleton and nuclei were collected over 3 h using a Biotek Lionheart microscope ELx800 in fluorescence mode with a 20× objective.

Renca cells [2] = experiment: Renca sulforhodamine B (SRB) assay, cell growth inhibition; type: cell-based; settings: Mus musculus, Renca, 48 h
Description: (§1) In two independent trials of Renca and Renca-luc cells were plated in triplicate at 8000 cells/well into 96-well plates and incubated for 24 h at 37 °C in a humidified incubator with 5% CO2 followed by a 48 h treatment period at ten-fold dilutions of the drug.

Renca-luc cells = experiment: Renca-luc sulforhodamine B (SRB) assay, cell growth inhibition; type: cell-based; settings: Mus musculus, 48 h
Description: as §1

[3] = system: orthotopic Renca-luc tumors; experiment: Long-term therapy with OXi8007 and/or cabozantinib; type: in vivo, mouse
Description: OXi8007, synthesized by the Pinney Laboratory using published procedures, was dissolved in saline, verified to be in the pH range 7.3 to 7.5, and dosed at 250 mg/kg (IP). Cabozantinib (in PEG400 and ultrapure H2O (Milli-Q)) was administered at 3 mg/kg by oral gavage. Anti-PD-1 (10 mg/kg, Bio X Cell, Lebanon, NH, USA) and anti-CTLA-4 (5 mg/kg, Bio X Cell, Lebanon, NH) solutions were administered (IP) on the day before OXi8007 […].
We evaluated the longitudinal effects of OXi8007 alone and in combination with drugs currently favored for treating kidney cancer. For Renca-luc tumor-bearing mice, BLI was performed at least once a week to estimate tumor size, and mice were weighed weekly to adjust the dose as needed. Two treatment cohorts examined syngeneic orthotopic Renca-luc tumors in male BALB/c mice. Treatment started when the tumors reached about 1 × 10^6 photons/s peak total flux on BLI. The first cohort examined OXi8007 with cabozantinib. Mice were divided into four groups. Mice were assigned to groups as soon as there were sufficient to add the same numbers of animals to each group. The specific assignment was defined using the random number function in Excel. […] The second cohort was treated with CKIs and OXi8007 using four groups: Group 5 (OXi8007 + anti-PD-1 (10 mg/kg) + anti-CTLA-4 (5 mg/kg); n = 4), Group 6 (saline + anti-PD-1+ anti-CTLA-4; n = 3), Group 7 (saline + anti-PD-1; n = 3), and Group 8 (saline + anti-CTLA-4; n = 4). CKI antibodies were administered thrice weekly (M, W, F) for the first two weeks after the first treatment with OXi8007, which was administered twice weekly. […] Initial tumor growth was confirmed by palpation, and the mice were assigned to groups such that the first mouse with a confirmed tumor was assigned to Group 5, next to Group 6, etc., ensuring that all groups had both faster- and slower-growing tumors. […] Tumor size (BLI signal) and mouse body weights were compared using an ANOVA and multiple comparisons at a significance level of p < 0.05. Kaplan–Meier survival curves were compared using a non-parametric log-rank test using SAS software (SAS Institute Inc., SAS Viya for learners 4, Cary, NC, USA).

Renca cells [4] = experiment: Wound (scratch) assay; type: cell-based, mouse; settings: ≥ 2.5 µM, over 48 h
Description: Renca cells were plated at a seeding density of approximately 3 × 10^5 cells per well in a 6-well plate and allowed to reach confluency before treatment. A scratch was made with a sterile 10 µL pipette tip in each well before removing the medium and any detached cells. […] Hoechst 33342 was added to each well at a final concentration of 1 µg/mL and incubated for 15 min at 37 °C to stain the cell nuclei. Gen5 version 3.14 software was used for cellular and statistical analysis of the wound closure data.

[5] = system: orthotopic Renca-luc tumors; experiment: Acute response by oxygen-enhanced MSOT; type: in vivo, mouse
Description: (§2) For the multispectral optoacoustic tomography (MSOT), an iThera InVision 256-TF device with seven wavelengths (700, 730, 760, 780, 800, 820, and 875 nm) was used. Mice were shaved and depilated around the tumor region. The anesthetized mouse (1–2% isoflurane) was placed in the imaging chamber (34 °C) for 10 min to reach thermal equilibrium before imaging a single slice showing the largest cross-section of the tumor. An oxygen gas breathing challenge was performed to assess the dynamic changes in blood oxygenation. Images were generated using ViewMSOT version 4.2 with a back projection-based reconstruction algorithm followed by built-in fluence correction. Oxy- and deoxyhemoglobin were resolved using a linear regression approach.
(§3) Oxygen saturation (sO2) maps were analyzed using MATLAB 2022b (MathWorks Inc., Natick, MA, USA), and the images were visualized with Fiji. The percentage of hemoglobin saturation (sO2) was calculated as follows:[…]
Blank pixels represent areas lacking a detectable hemoglobin signal. The average sO2^MSOT was calculated pixelwise in each ROI for the air and oxygen breathing periods as sO2^MSOT (Air) and sO2^MSOT (O2), and the response to the oxygen gas challenge was as follows:∆sO2 = sO2 (O2) − sO2 (Air)(2) […]

[6] = system: orthotopic XP258 human tumor xenografts; experiment: Acute response of XP258 tumors by MSOT; type: in vivo, mouse; settings: XP258, four hours post-treatment, 250 mg/kg IP
Description: as §2, §3
Blank pixels represent areas lacking a detectable hemoglobin signal. The average sO2^MSOT was calculated pixelwise in each ROI for the air and oxygen breathing periods as sO2^MSOT (Air) and sO2^MSOT (O2), and the response to the oxygen gas challenge was as follows:∆sO2 = sO2 (O2) − sO2 (Air)(2)

[7] = system: subcutaneous MDA-MB-231 tumors; set-up: method as in earlier work; settings: cited from earlier work
[8] = system: orthotopic Renca-luc tumors; experiment: Acute response by dynamic bioluminescence imaging (BLI) and histology; type: in vivo, mouse
Description: Anesthesia was induced with 1–3% isoflurane, and the mice were placed on the warmed imaging stage of an IVIS Spectrum® small animal imaging system (Xenogen/PerkinElmer Inc., Waltham, MA, USA) with continuous exposure to 1 to 2% isoflurane, as described previously. On successive occasions, mice were administered 75 µL of D-luciferin (sodium salt; Gold Biotechnology, St. Louis, MO, USA) SC in the fore back neck region as a 40 mg/mL solution in 0.9% saline. The BLI signal was quantified as the total flux using Living Image Software 4.3.7. Fresh luciferin was administered 4 and 24 h after drug administration to reveal acute changes in tumor perfusion.
Acute effects of OXi8007 were examined on Renca-luc tumor-bearing mice using BLI (n = 8) and MSOT (n = 6) by comparing images at the baseline [pre (0 h)] and following OXi8007 administration (IP) at 4 h and 24 h. Dynamic BLI images were acquired every minute over the course of 15–20 min immediately following luciferin injection. For MSOT, the same mice underwent a gas breathing challenge for 5 min in air (21% O2), 7 min in O2 (100% O2), followed by 3 min in air at 0 h, 4 h, and 24 h post-treatment.

## COc1ccc2c(C(=O)c3cc(OC)c(OC)c(OC)c3)c(-c3ccc(OC)c(OP(=O)(O)O)c3)[nH]c2c1 [OXi8007]
Renca cells [1]
  Effect on microtubule structure: rapid progressive loss of microtubule structure
Renca cells [2]
  IC50: 1.45 ± 0.001 µM
Renca-luc cells
  IC50: 1.56 ± 0.048 µM
[3]; 250 mg/kg IP twice weekly up to 7 weeks
  Toxicity in adult mice: no overt toxicity
[3]; Renca-luc BALB/c mice, 250 mg/kg IP twice weekly
  Body weight at week 7 versus baseline: significant loss in body weight
[3]; Renca-luc BALB/c mice, OXi8007 alone
  Body weight loss versus pre-treatment baseline: ~ 11%
[3]; Renca-luc, versus control
  Tumor growth delay (BLI): no significant growth delay
[3]; Renca-luc, 250 mg/kg IP twice weekly, log-rank p = 0.053
  Overall survival versus control: no overall survival benefit
Renca cells [4]
  Wound closure: significantly depressed
[5]; 350 mg/kg IP in situ using a catheter, while breathing O2
  Period of vascular hypoxiation to plateau (MSOT): about 30 min
[5]; after intraperitoneal administration
  Time to hypoxiation (photoacoustic imaging): ≤ 30 min
[6]
  Tumor vascular oxygenation (MSOT): less well oxygenated and less responsive to the oxygen gas breathing challenge
[7]
  Tumor growth delay: significant tumor growth delay
[8]; 4 h after OXi8007 250 mg/kg IP, 8 mice
  BLI signal relative to baseline: < 2 % baseline
[8]; Renca-luc, within 4 h post-treatment
  Histology of tumor: extensive intratumoral hemorrhage
[8]; within 4 h, orthotopic kidney tumors
  Vascular shutdown (BLI): > 98%
